Assay results taken from PubChem BioAssay AID2060887 (Molecular Pharmacology Branch, DTP, NCI, 2025).

System: 782815-120-R-J1-PDC complex spheroid viability
Assay: Anticancer human tumor 782815-120-R-J1-PDC patient-derived colon adenocarcinoma cell line growth inhibition [RAS]
Settings: for IC50: curve of first compound; for viability, T/C: stronger effect = lower value
Description: RAS pathway inhibitors in Combinations in Complex Spheroids
A high-throughput screen of multi-cell type tumor spheroids was designed to identify active combinations of RAS pathway inhibitors and targeted small molecules. Complex spheroids include a stromal component modeled by human endothelial cells (HUVEC) and fibroblasts modeled by human mesenchymal stem cells (MSCs). The concentration ranges selected for each drug and investigational agent were based upon clinically achievable concentrations if the clinical Cmax of the agent was known.
Compounds. The drugs and investigational agents: abemaciclib (NSC768073), cobimetinib (NSC768068), divarasib (GDC6063, NSC841802), docetaxel (NSC628503), GDC-1971 (RLY-1971, NSC841576), gemcitabine (NSC613327), inavolisib (NSC800729), ipatasertib (NSC767898), KB-0742 (NSC834161), MRTX-1133 (NSC836407), osimertinib (NSC779217), RMC-4630 (NSC839698), RMC-6236 (NSC851965), RMC-6291 (NSC852671), Ro-3306 (NSC812927), sapanisertib (NSC764658), SN-38 (NSC673596), staurosporine (NSC755774), SY5609 (NSC837396), and tovorafenib (DAY101, NSC766906), were obtained from the National Cancer Institute (NCI) Developmental Therapeutics Program Chemical Repository. The FDA-approved anticancer drug set is available from the NCI Developmental Therapeutics Program. […] The stock solutions were prepared in dimethyl sulfoxide (DMSO, Sigma-Aldrich, St. Louis, MO, cat. D2650) at 800-fold the tested concentration and stored at -70 degrees C prior to their use. All drugs and investigational agents were tested over a range starting from a high concentration at or near the clinical Cmax and decreasing in half-log increments. If the clinical Cmax for an agent had not been determined, the highest concentration tested was 10 microM.
Cell Culture. All cells were maintained in an incubator at 37 degrees C and 5% CO2 with 95% humidity. The PDC lines were cultured according to standard operating procedures established by the NCI PDMR. All PDCs were thawed and cultured in Matrigel-coated flasks prepared with a working solution of 1X Ham's F-12 nutrient mix, without supplementation (Invitrogen, Waltham, MA, cat. 11765054), 100 U/mL penicillin-streptomycin (Invitrogen, cat. 15140122), and 2.5% Matrigel (Corning Inc., Corning, NY, cat. 354248) for the first three passages. The 362531-283-R-J2-PDC and 782815-120-R-J1-PDC lines were cultured in 6C/Colon 1B media, which includes advanced DMEM/F-12 (Thermo Fisher Scientific, cat. 12634028), 10 mM HEPES (Thermo Fisher Scientific, cat. 15630080), 1X GlutaMAX supplement (Thermo Fisher Scientific, cat. 35050061), 0.1 mg/mL primocin (InvivoGen, San Diego, CA, cat. ant-pm-2), 10% defined fetal bovine serum, heat inactivated (HyClone Laboratories Inc., Logan, UT, cat. SH30070.03HI), 50% L-WRN conditioned media (ATCC, cat. CRL-3276), 1.25 mM N-Acetyl-L-cysteine (Sigma-Aldrich, cat. A9165), 10 mM nicotinamide (Sigma-Aldrich, cat. N0636), 1X B-27 supplement (Thermo Fisher Scientific, cat. 17504044), 1X N-2 supplement (Thermo Fisher Scientific, cat. 17502048), 50 ng/mL human EGF (Thermo Fisher Scientific, cat. PHG0311), and 10 microM Y-27632 dihydrochloride (Tocris Bioscience, cat. 1254). The K12877-001-R-J1-PDC line was cultured in 6I media, which includes all 6C/Colon 1B media plus 10 ng/mL human FGF-10 (PeproTech, cat. 100-26), 1 ng/mL human FGF-2 (PeproTech, cat. 100-18B), 1 µM prostaglandin E2 (Tocris Bioscience, cat. 2296), […] hydrocortisone (Sigma-Aldrich, cat. H4001), and […] bovine insulin (Sigma-Aldrich, cat. I6634). The K86415-001-R-J1-PDC line was cultured in 6D media, which includes all 6C/Colon 1B media components minus the L-WRN conditioned media. The 485176-168-R4-J1-PDC was cultured in PANC media, which includes all 6C/Colon 1B media plus 100 ng/mL human FGF-10 (PeproTech, cat. 100-26), 500 nM SB-431542 (Selleckchem, cat. S1067), and 10 nM gastrin (Tocris Bioscience, cat. 3006). […]

[1] = second compound 0.0316 µM, first compound 0.0316 µM
[2] = second compound 0.0316 µM, first compound 0.1 µM
[3] = second compound 0.1 µM, first compound 0.0316 µM
[4] = second compound 0.1 µM, first compound 0.1 µM
[5] = second compound 0.316 µM, first compound 0.0316 µM
[6] = second compound 0.316 µM, first compound 0.1 µM
[7] = second compound 1 µM, first compound 0.0316 µM
[8] = second compound 1 µM, first compound 0.1 µM
[9] = second compound 3.16 µM, first compound 0.0316 µM
[10] = second compound 3.16 µM, first compound 0.1 µM
[11] = second compound 10 µM, first compound 0.0316 µM
[12] = second compound 10 µM, first compound 0.1 µM
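Further: spheroids exposed to compounds for 7 days before reading.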
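Wherever viability, T/C is given: 100% = DMSO vehicle control viability.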

With `CC(C)n1nc(-c2ccc3oc(N)nc3c2)c2c(N)ncnc21` + C#Cc1c(F)ccc2cc(O)cc(-c3ncc4c(N5CC6CCC(C5)N6)nc(OCC56CCCN5CC(F)C6)nc4c3F)c12 the IC50 (second compound 0.0316 µM) was over 0.1 µM, the IC50 (second compound 0.1 µM) was over 0.1 µM and the IC50 (second compound 0.316 µM) was over 0.1 µM. For the same compound, the IC50 (second compound 1 µM) was over 0.1 µM, the IC50 (second compound 3.16 µM) was over 0.1 µM and the IC50 (second compound 10 µM) was over 0.1 µM. The viability, T/C (second compound 0.0316 µM, first compound 0.000316 µM) was 97%, the viability, T/C (second compound 0.0316 µM, first compound 0.001 µM) was 100% and the viability, T/C (second compound 0.0316 µM, first compound 0.00316 µM) was 105%. For the same compound, the viability, T/C (second compound 0.0316 µM, first compound 0.01 µM) was 98.1%, the viability, T/C [1] was 91.8% and the viability, T/C [2] was 85.2%. The viability, T/C (second compound 0.1 µM, first compound 0.000316 µM) was 99.1%, the viability, T/C (second compound 0.1 µM, first compound 0.001 µM) was 91.4% and the viability, T/C (second compound 0.1 µM, first compound 0.00316 µM) was 101%. The viability, T/C (second compound 0.1 µM, first compound 0.01 µM) was 89.6%, the viability, T/C [3] was 97% and the viability, T/C [4] was 81.6%. It also gave a viability, T/C (second compound 0.316 µM, first compound 0.000316 µM) of 96.6%, a viability, T/C (second compound 0.316 µM, first compound 0.001 µM) of 105% and a viability, T/C (second compound 0.316 µM, first compound 0.00316 µM) of 94.5%. The viability, T/C (second compound 0.316 µM, first compound 0.01 µM) was 108%, the viability, T/C [5] was 88.1% and the viability, T/C [6] was 84.1%. It also gave a viability, T/C (second compound 1 µM, first compound 0.000316 µM) of 99.7%, a viability, T/C (second compound 1 µM, first compound 0.001 µM) of 101% and a viability, T/C (second compound 1 µM, first compound 0.00316 µM) of 88.6%. For the same compound, the viability, T/C (second compound 1 µM, first compound 0.01 µM) was 105%, the viability, T/C [7] was 93.7% and the viability, T/C [8] was 83.8%. It also gave a viability, T/C (second compound 3.16 µM, first compound 0.000316 µM) of 98.7%, a viability, T/C (second compound 3.16 µM, first compound 0.001 µM) of 101% and a viability, T/C (second compound 3.16 µM, first compound 0.00316 µM) of 93.5%. For the same compound, the viability, T/C (second compound 3.16 µM, first compound 0.01 µM) was 92.6%, the viability, T/C [9] was 92.1% and the viability, T/C [10] was 84.4%. For the same compound, the viability, T/C (second compound 10 µM, first compound 0.000316 µM) was 101%, the viability, T/C (second compound 10 µM, first compound 0.001 µM) was 95.3% and the viability, T/C (second compound 10 µM, first compound 0.00316 µM) was 85.3%. For the same compound, the viability, T/C (second compound 10 µM, first compound 0.01 µM) was 92.8%, the viability, T/C [11] was 88.8% and the viability, T/C [12] was 74.7%.

Work on `C[C@@H](NC(=O)c1ncnc(N)c1Cl)c1ncc(C(=O)Nc2cc(C(F)(F)F)c(Cl)cn2)s1` + C#Cc1c(F)ccc2cc(O)cc(-c3ncc4c(N5CC6CCC(C5)N6)nc(OCC56CCCN5CC(F)C6)nc4c3F)c12 yielded an IC50 (second compound 0.0316 µM) of over 10 µM, an IC50 (second compound 0.1 µM) of over 10 µM and an IC50 (second compound 0.316 µM) of over 10 µM. The IC50 (second compound 1 µM) was over 10 µM, the IC50 (second compound 3.16 µM) was over 10 µM and the IC50 (second compound 10 µM) was over 10 µM. For the same compound, the viability, T/C [1] was 105%, the viability, T/C [2] was 101% and the viability, T/C (second compound 0.0316 µM, first compound 0.316 µM) was 108%. The viability, T/C (second compound 0.0316 µM, first compound 1 µM) was 90.7%, the viability, T/C (second compound 0.0316 µM, first compound 3.16 µM) was 85.2% and the viability, T/C (second compound 0.0316 µM, first compound 10 µM) was 72.3%. For the same compound, the viability, T/C [3] was 98.5%, the viability, T/C [4] was 111% and the viability, T/C (second compound 0.1 µM, first compound 0.316 µM) was 96.4%. It also gave a viability, T/C (second compound 0.1 µM, first compound 1 µM) of 99.1%, a viability, T/C (second compound 0.1 µM, first compound 3.16 µM) of 81.4% and a viability, T/C (second compound 0.1 µM, first compound 10 µM) of 71.4%. The viability, T/C [5] was 104%, the viability, T/C [6] was 108% and the viability, T/C (second compound 0.316 µM, first compound 0.316 µM) was 96.7%. It also gave a viability, T/C (second compound 0.316 µM, first compound 1 µM) of 95.9%, a viability, T/C (second compound 0.316 µM, first compound 3.16 µM) of 80.4% and a viability, T/C (second compound 0.316 µM, first compound 10 µM) of 70.5%. It also gave a viability, T/C [7] of 105%, a viability, T/C [8] of 114% and a viability, T/C (second compound 1 µM, first compound 0.316 µM) of 111%. The viability, T/C (second compound 1 µM, first compound 1 µM) was 82.5%, the viability, T/C (second compound 1 µM, first compound 3.16 µM) was 71.1% and the viability, T/C (second compound 1 µM, first compound 10 µM) was 61.5%. It also gave a viability, T/C [9] of 99.3%, a viability, T/C [10] of 101% and a viability, T/C (second compound 3.16 µM, first compound 0.316 µM) of 91.6%. It also gave a viability, T/C (second compound 3.16 µM, first compound 1 µM) of 87.3%, a viability, T/C (second compound 3.16 µM, first compound 3.16 µM) of 76.4% and a viability, T/C (second compound 3.16 µM, first compound 10 µM) of 65.7%. For the same compound, the viability, T/C [11] was 105%, the viability, T/C [12] was 100% and the viability, T/C (second compound 10 µM, first compound 0.316 µM) was 92.8%. It also gave a viability, T/C (second compound 10 µM, first compound 1 µM) of 86.2%, a viability, T/C (second compound 10 µM, first compound 3.16 µM) of 71.6% and a viability, T/C (second compound 10 µM, first compound 10 µM) of 57.2%.
